Experiments:
[1] = system: human colorectal cancer cell line HCT-116; assay: Cell viability by MTT assay, HCT-116; format: cell-based
Excerpt: (§1) The cell line HCT-116 is an adult colorectal cancer cell, and its cells are TGF-β1 and TGF-β2, which are the targeted cells commonly used in preclinical colorectal cancer; the cell line DLD-1 is a […] human colorectal cancer. The cells, which are cancer cells that have invaded the lymph nodes in the late stage, have rapid metastatic growth and are also the targeted cells commonly used in preclinical studies of colorectal cancer; the cell line MCF-7 is an adult […] mastocarcinoma cell with Tx-4 oncogene, which is a targeted cell commonly used in preclinical studies of mastocarcinoma. The cell line A549 is an adult […] lung cancer cell, and its cell characteristic is the ability to synthesize lecithin. Pre-clinical studies of targeted cells are commonly used in lung cancer; cell line EG7 is a lymphoma cell, and its cells with antigen OVA are the targeted cells commonly used in cancer immunotherapy for preclinical studies; cell line L929 is fibroblast, which is the specified cell for preclinical studies of the cytotoxicity standard assay.
(§2) Cell Viability by MTT Assay […]
(§3) 4) The culture solution is extracted, and DMSO is added to dissolve the purple crystals, and the light absorption value is measured at a wavelength of 570 nm.
(§4) 5) The cell survival rate and IC50 of the drug are calculated by comparing the values of the control group with the light absorption values of different groups.

[2] = system: human colorectal cancer cell line DLD-1; assay: Cell viability by MTT assay, DLD-1; format: cell-based; conditions: DLD-1 colorectal cancer cells, 24 hours with drug
Excerpt: as §1, §2, §3, §4

[3] = system: human breast cancer cell line MCF-7; assay: Cell viability by MTT assay, MCF-7; format: cell-based; conditions: MCF7, MCF-7 breast cancer cells, 24 hours with drug
Excerpt: as §1, §2, §3, §4

[4] = system: human lung cancer cell line A549; assay: Cell viability by MTT assay, A549; format: cell-based; conditions: A549 lung cancer cells, 24 hours with drug
Excerpt: as §1, §2, §3, §4

lymphoma cell line E.G7 = assay: Cell viability by MTT assay, E.G7; format: cell-based; conditions: E.G7 lymphoma cells, 24 hours with drug
Excerpt: as §1, §2, §3, §4

[5] = system: fibroblast cell line L929; assay: Cell viability by MTT assay, L929; format: cell-based; conditions: Mus musculus, L929 fibroblast cells, 24 hours with drug
Excerpt: as §1, §2, §3, §4

[6] = system: human colorectal cancer cell (HT-29) tumors; assay: Animal assay: HT-29 colorectal tumor growth in nu/nu mouse; format: in vivo; conditions: 10 mg/kg tail vein, 2 times per week, HT-29 in nu/nu mouse
Procedure: The mouse is used as a model organism to observe the inhibition growth of TG1 on colorectal cancer tumors.
1) The human colorectal cancer cell (HT-29) is implanted in the back of mouse (nu/nu mouse), and the tumors are grown to about 250 mm^3 for grouping.
2) The mice are divided into 3 groups (untreated group, treatment group TG1 and clinical anticancer drug Irinotecan of treatment group), 8 mice in each group.
3) The treatment group TG1 and Irinotecan are administered at a concentration of 10 mg/kg, and the drug is administered in the tail vein at a frequency of 2 times per week.
4) Observe the tumor volume growth, the tumor volume calculation formula is: length×width×width×0.5.

[7] = system: human colorectal cancer (Caco2, SW480, HCT116); conditions: Saunier et al. 2017; cited from earlier work

IC50 ([1]; Homo sapiens, HCT-116 colorectal cancer cells, MTT assay, 24 hours with drug)	IC50 [2]	IC50 [3]	IC50 [4]	IC50 (lymphoma cell line E.G7)	Compound	ability to poison colorectal cancer cells relative to other cells ([1]; colorectal cancer cells versus other cells, from IC50 values of Table 1)	IC50 [5]	mean tumor volume ([6]; 10th day)	average tumor volume ([6]; 15th day)	average tumor volume ([6]; 20th day)	ability to inhibit cancer cells [7]
0.031 µM	0.056 µM	190 µM	63 µM	180 µM	Oc1ccc(/C=C/c2cc(O)cc(O)c2O)cc1 [TG1, 2,3,5, 4′-tetrahydroxy-trans-stilbene]	1000-6000 times	255 µM	291 mm^3	300 mm^3	461 mm^3	–
–	–	–	–	–	Oc1ccc(C=Cc2cc(O)cc(O)c2)cc1 [resveratrol]	–	–	–	–	–	no any ability to inhibit cancer cells

From US10849861B2, “Pharmaceutical compound for treating colorectal cancer” (Everest Pharm. Industrial Co., LTD., priority 2018, dated 2020)
